Eight compounds from PMC11443485, “Euphane and Tirucallane Triterpenes with Trypanocidal Activity from Euphorbia desmondii” (Journal of Natural Products, 2024) can be followed below.

Read-outs that look alike come from different tables or passages of the source.

One experiment has as its system RAW264.7 macrophages. The experiment can be described thus: Cytotoxicity in RAW264.7 macrophages (mammalian host cells). It is filed as cell-based. The conditions noted are these: host cell cytotoxicity, read-out: RAW 264.7 IC50. The protocol:
[The procedure below names another organism; the source lists this organism under the same test.] To biologically characterize the isolated triterpenoids for their trypanocidal activities, their cytotoxicities in RAW264.7 macrophages (mammalian host cells) and T. cruzi epimastigotes were analyzed.
To assess the selectivities of the isolated compounds, their trypanocidal activities against the epimastigotes were assessed by the Cell Proliferation Kit II (XTT) assay, as previously described.[11] Briefly, 1.5 × 10^5 epimastigotes were seeded per well in 96-well plates. […] In all the experiments, benznidazole was used as the positive control. Following the incubation period, the plates were examined under a microscope for sterility and growth of controls. To the plates, 50 μL of XTT and PMS (Phenazine methosulfate, Sigma-Aldrich, MO, USA) solution (XTT and PMS at 0.5 and 0.025 mg/mL, respectively) was added, and the plates were then incubated at 28 °C for 2.5 h. The parasites were fixed by the addition of 50 μL of MeOH for 15 min before the absorbance was measured at 490 nm on a Tecan plate reader. Results were expressed as percentage cell viability relative to vehicle control or IC50 values calculated by GraphPad Prism version 8.0. All assessments were performed in triplicate in at least two independent experiments.

The subject of experiment [1] is T. cruzi epimastigotes (Y strain). The experiment can be described thus: Trypanocidal activity against T. cruzi epimastigotes, Cell Proliferation Kit II (XTT) assay. The conditions noted are these: for Selectivity Index: T. cruzi epimastigotes over the host cell (RAW264.7 macrophages); for IC50: epimastigotes, Y strain, 72 h at 28 °C, XTT, read-out: T. cruzi epimastigote WT-Y IC50; for Increase of the proliferation of the epimastigotes: at the lower micromolar concentrations, trypanocidal at higher concentrations; for Effect on T. cruzi epimastigote proliferation (Figure S130): mean ± SD of three independent experiments each in triplicates. The format is cell-based, Trypanosoma cruzi. As for the experimental part:
Epimastigotes of T. cruzi [Y strain (ATCC 50832)] were maintained in weekly passages in a liver infusion tryptose (LIT) medium supplemented with 10% heat-inactivated fetal bovine serum (hiFBS) at 28 °C, as described previously.[33] The epimastigote cultures in the logarithmic-growth phase (1–5 × 10^7 parasites/mL) were used for the experiments unless stated otherwise. The green fluorescent protein (GFP)-overexpressing epimastigotes were generated by transfection using pTREX-n-eGFP, a gift from Rick Tarleton (Addgene plasmid # 62544; http://n2t.net/addgene:62544;RRID:Addgene_62544), as described previously. The GFP-expressing epimastigotes were cultured in LIT medium supplemented with 10% hiFBS and 500 μg/mL G418.
To assess the selectivities of the isolated compounds, their trypanocidal activities against the epimastigotes were assessed by the Cell Proliferation Kit II (XTT) assay, as previously described.[11] Briefly, 1.5 × 10^5 epimastigotes were seeded per well in 96-well plates. The compounds were added at a single concentration, 10 μM (for the initial screening experiments) or six concentrations ranging from 10–0.3 μM for 72 h at 28 °C. In all the experiments, benznidazole was used as the positive control. Following the incubation period, the plates were examined under a microscope for sterility and growth of controls. To the plates, 50 μL of XTT and PMS (Phenazine methosulfate, Sigma-Aldrich, MO, USA) solution (XTT and PMS at 0.5 and 0.025 mg/mL, respectively) was added, and the plates were then incubated at 28 °C for 2.5 h. The parasites were fixed by the addition of 50 μL of MeOH for 15 min before the absorbance was measured at 490 nm on a Tecan plate reader. Results were expressed as percentage cell viability relative to vehicle control or IC50 values calculated by GraphPad Prism version 8.0. All assessments were performed in triplicate in at least two independent experiments.
(In general: Tetrazolium assays rely on reduction of a dye to a coloured formazan, in cell work by metabolically active cells.)

Experiment [2] concerns T. cruzi amastigotes in infected RAW264.7 cells. The experiment can be described thus: Amastigote replication in host cells: FACS quantitation of GFP parasites released from infected RAW264.7 cells. The conditions noted are these: GFPY parasite release from infected RAW264.7 cells, FACS after 6 days, mean ± SD of three independent experiments. The format is cell-based, Trypanosoma cruzi. The protocol:
Figure 3 Inhibition activity of 1 against amastigote replication in the host cells. […] (A) Representative brightfield microscopic image of CCL39 fibroblasts infected with Trypanosoma cruzi with amastigotes (arrow). […] (C) Inhibition curves of compound 1 and the positive control, benznidazole, of the GFPY parasite release from the infected RAW264.7 cells were measured by fluorescence-activated cell sorting (FACS) after 6 days.
Fluorescence-activated cell sorting (FACS)-based quantitation of released parasites from infected RAW264.7 cells: The host cells were seeded in 24-well plates at densities of 40,000 and 10,000 cells/mL. The cells were allowed to adhere for 24 h, after which they were infected with trypomastigotes that were harvested by the swim-out procedure described above at a multiplicity of 10. On the next day, the noninternalized trypomastigotes were washed off, and fresh RPMI with 2% fetal bovine serum was added to the wells along with the test substance. In all of the experiments, the screening was performed in triplicate, including tests with DMSO and benznidazole controls. The released parasites were fixed using 4% paraformaldehyde in phosphate-buffered saline for 1 h, after which the samples were analyzed by FACS (BD Biosciences), as described previously.[11]

Where [3] appears, read: Trypanosoma cruzi, RAW264.7, 144 h.

The IC50 is the concentration that gives 50% inhibition. `C/C(C=O)=C\CC[C@H](C)[C@@H]1CC[C@]2(C)C3=C([C@@H](O)C[C@@]12C)[C@@]1(C)CC[C@H](O)C(C)(C)[C@@H]1CC3=O` [Compound 7, Desmondiin H]: the IC50 in the experiment on RAW264.7 macrophages (Mus musculus) stood at 23.5 µM; in experiment [1] (Trypanosoma cruzi) it was 3.7 µM. Further, the “Selectivity Index” value in experiment [1] worked out at 6.4.
`CC(=O)CCC[C@H](C)[C@@H]1CC[C@]2(C)C3=C(CC[C@@]12C)[C@@]1(C)CC[C@H](O)C(C)(C)[C@@H]1CC3=O` [Compound 3, Desmondiin D]: the IC50 in the experiment on RAW264.7 macrophages (Mus musculus) was determined as 31 µM; in experiment [1] (Trypanosoma cruzi), 4 µM. Also, the “Selectivity Index” value in experiment [1] came to 7.8.
For “3β-hydroxy-27-nor-tirucalla-8-en-7,11,25-trione [Compound 12]”, the IC50 with RAW264.7 macrophages was determined as 24.4 µM. Also, in experiment [1], the “Selectivity Index” value stood at 6.6, the “Increase of the proliferation of the epimastigotes” value (“Increase” below) is given as 15–30%, the IC50 is 3.7 µM and the “Effect on T. cruzi epimastigote proliferation (Figure S130)” value (“Effect” below) is reported as “significant increase”.
Turning to `CC(C)C(=O)CC[C@@H](C)[C@@H]1CC[C@]2(C)C3=C(CC[C@@]12C)[C@@]1(C)CC[C@H](O)C(C)(C)[C@@H]1CC3=O` [Compound 2, eupha-8-ene-3β-ol-7,24-dione], the IC50 was determined as 31.5 µM in the experiment with RAW264.7 macrophages (Mus musculus) and 5 µM in experiment [1] (Trypanosoma cruzi). Besides, in experiment [1], the “Selectivity Index” value was determined as 6.3. Further, the “Effect” value in experiment [1] was “significant increase”.
For the compound `C[C@H](C/C=C/C(C)(C)OO)[C@@H]1CC[C@]2(C)C3=C(CC[C@@]12C)[C@@]1(C)CC[C@H](O)C(C)(C)[C@@H]1CC3=O` [Compound 1, (23E)-25-hydroperoxyeupha-8,23-diene-3β-ol-7-one], the IC50 in the experiment with RAW264.7 macrophages (Mus musculus) turned out to be 38.1 µM; in experiment [1] (Trypanosoma cruzi) it was 4.5 µM; in experiment [2] (listed as desmondiin A), 2.4 ± 0.3 µM; in experiment [2] (setting [3]), 2.5 ± 0.3 µM. In experiment [1], the “Selectivity Index” value is 8.5.
For `CC(C)=CCC[C@@H](C)[C@@H]1CC[C@]2(C)C3=C(C(=O)C[C@@]12C)[C@@]1(C)CC[C@H](O)C(C)(C)[C@@H]1C[C@H]3O` [Compound 8, eupha-8,24-dien-3β,7α-diol-11-one], the IC50 in the experiment on RAW264.7 macrophages (Mus musculus) came out at 28.4 µM. In experiment [1], the “Selectivity Index” value is given as 5.8, the “Increase” value is 15–30% and the “Effect” value was “significant increase”. In addition, the IC50 in experiment [1] (Trypanosoma cruzi) worked out at 4.9 µM.
Consider `O=C(Cn1ccnc1[N+](=O)[O-])NCc1ccccc1` [benznidazole, reference compound], for which the IC50 in experiment [2] was found to be 3.2 ± 0.5 µM; in experiment [2] (setting [3]), 3.6 ± 0.4 µM.
Turning to `C[C@@H](C/C=C/C(C)(C)OO)[C@@H]1CC[C@]2(C)C3=C(C(OO)C[C@@]12C)[C@@]1(C)CC[C@H](O)C(C)(C)[C@@H]1CC3=O` (stereo partly drawn) [Compound 5, (23E)-11,25-dihydroperoxytirucalla-8,23-dien-3β-ol-7-one], in the experiment on RAW264.7 macrophages (Mus musculus), the IC50 is 18.4 µM. In experiment [1], the “Selectivity Index” value amounted to 5.4, the “Increase” value is given as 15–30% and the “Effect” value was “significant increase”. For the same compound, the IC50 in experiment [1] (Trypanosoma cruzi) is 3.4 µM.
